This is an account of results in patent US20250296914A1, “ANTIVIRAL COMPOUNDS AND COMPOSITIONS THEREFROM” (CONSEJO SUPERIOR DE INVESTIGACIONES CIENTÍFICAS, priority 2022, published 2025).

In this test the test system is SARS-CoV-2 stock strain NL/2020. The experiment in a line: Protective effect against virus-induced cytopathic effect (crystal violet staining of Vero-E6 monolayer). The test is classed as cell-based. Conditions: Vero-E6, SARS-CoV-2 MOI 0.001, 72 h; for minimal effective concentration / PC MIN (lowest protective concentration): 50 to 0.78 μM tested; for minimal effective concentration: read-out: PC MIN (lowest protective concentration); for EC50: lowest fully protecting concentration averaged with next lower dilution, read-out: ESTIMATED EC50.

Where [1] appears, read: Severe acute respiratory syndrome coronavirus 2, Vero C1008, 72 h.

Like-named read-outs stand apart in the source and are kept apart here.

As to `CCc1cccc(-c2ccc(NC(C#N)[C@H](Cc3c[nH]c4ccccc34)NC(=O)OC(C)(C)C)c(C(=O)OC)c2)c1` (stereo partly drawn) [(Iaa), methyl 4-(((2S)-2-((tert-butoxycarbonyl)amino)-1-cyano-3-(1H-indol-3-yl)propyl)amino)-3′-ethyl-[1,1′-biphenyl]-3-carboxylate], under setting [1], the minimal effective concentration came to 3.12 µM and the EC50 is 2.34 µM.
For `COC(=O)c1cc(-c2cccc(N3CCCC3)c2)ccc1NC(C#N)[C@H](Cc1c[nH]c2ccccc12)NC(=O)OC(C)(C)C` (stereo partly drawn) [(Iab), methyl 4-(((2S)-2-((tert-butoxycarbonyl)amino)-1-cyano-3-(1H-indol-3-yl)propyl)amino)-3′-(pyrrolidin-1-yl)-[1,1′-biphenyl]-3-carboxylate], under setting [1], the minimal effective concentration is 3.12 µM and the EC50 is 2.34 µM.
For the compound `COC(=O)c1cc(-c2cccc(N(C)C)c2)ccc1NC(C#N)[C@H](Cc1c[nH]c2ccccc12)NC(=O)OC(C)(C)C` (stereo partly drawn) [(Iac), methyl 4-(((2S)-2-((tert-butoxycarbonyl)amino)-1-cyano-3-(1H-indol-3-yl)propyl)amino)-3′-(dimethylamino)-[1,1′-biphenyl]-3-carboxylate], under setting [1], the minimal effective concentration is 3.12 µM and the EC50 is 2.34 µM.
The like results for `COC(=O)c1cc(-c2cccc(OC(F)(F)F)c2)ccc1NC(C#N)[C@H](Cc1c[nH]c2ccccc12)NC(=O)OC(C)(C)C` (stereo partly drawn) [(Iad), methyl 4-(((2S)-2-((tert-butoxycarbonyl)amino)-1-cyano-3-(1H-indol-3-yl)propyl)amino)-3′-(trifluoromethoxy)-[1,1′-biphenyl]-3-carboxylate] were, in that order, 3.12 µM and 2.34 µM.
Take `COC(=O)c1cc(-c2ccc(N3CCN(C(C)C)CC3)nc2)ccc1NC(C#N)[C@H](Cc1c[nH]c2ccccc12)NC(=O)OC(C)(C)C` (stereo partly drawn) [(Iae), methyl 2-(((2S)-2-((tert-butoxycarbonyl)amino)-1-cyano-3-(1H-indol-3-yl)propyl)amino)-5-(6-(4-isopropylpiperazin-1-yl)pyridin-3-yl)benzoate]: under setting [1], the minimal effective concentration was found to be 3.12 µM and the EC50 was 2.34 µM.
The like results for `CCOc1ncc(-c2ccc(NC(C#N)[C@H](Cc3c[nH]c4ccccc34)NC(=O)OC(C)(C)C)c(C(=O)OC)c2)cn1` (stereo partly drawn) [(Iaf), methyl 2-(((2S)-2-((tert-butoxycarbonyl)amino)-1-cyano-3-(1H-indol-3-yl)propyl)amino)-5-(2-ethoxypyrimidin-5-yl)benzoate] were, in that order, 3.12 µM and 2.34 µM.
As for `CCCCc1ccc(-c2ccc(NC(C#N)[C@H](Cc3c[nH]c4ccccc34)NC(=O)OC(C)(C)C)c(C(=O)OC)c2)cc1` (stereo partly drawn) [(Iag), methyl 4-(((2S)-2-((tert-butoxycarbonyl)amino)-1-cyano-3-(1H-indol-3-yl)propyl)amino)-4′-butyl-[1,1′-biphenyl]-3-carboxylate], the “PC MIN (lowest protective concentration)” value was found to be 6.25 µM and the EC50 is 4.68 µM.
In the case of `COC(=O)c1cc(-c2cccc(Cc3ccccc3)c2)ccc1NC(C#N)[C@H](Cc1c[nH]c2ccccc12)NC(=O)OC(C)(C)C` (stereo partly drawn) [(Iah), methyl 3′-benzyl-4-(((2S)-2-((tert-butoxycarbonyl)amino)-1-cyano-3-(1H-indol-3-yl)propyl)-amino)-[1,1′-biphenyl]-3-carboxylate], under setting [1], the minimal effective concentration is 6.25 µM and the EC50 was 4.68 µM.
The like results for `CC(C)(C)OC(=O)N[C@@H](Cc1c[nH]c2ccccc12)C(C#N)Nc1ccccc1C(=O)NCc1ccccc1` (stereo partly drawn) [(Iai), 2-(((2S)-2-(tert-butoxycarbonylamino)-1-cyano-3-(1H-indol-3-yl)propyl)amino)-N-benzyl-benzamide] were, in that order, 6.25 µM and 4.69 µM.
The corresponding values for `CC(C)(C)OC(=O)N[C@@H](Cc1c[nH]c2ccccc12)C(C#N)Nc1ccccc1Br` (stereo partly drawn) [(Iaj), (3S)-2-((2-bromophenyl)amino)-4-(1H-indol-3-yl)-3-(tert-butoxycarbonylamino) butanenitrile] are 6.25 µM and 4.69 µM.
The like results for `COC(=O)c1ccccc1NC(C#N)[C@@H](Cc1c[nH]c2ccccc12)NC(=O)OC(C)(C)C` (stereo partly drawn) [(Iak), methyl 2-(((2R)-2-((tert-butoxycarbonyl)amino)-1-cyano-3-(1H-indol-3-yl)propyl)amino)-benzoate] were, in that order, 12.5 µM and 9.37 µM.
Turning to `CC(=O)c1ccccc1NC(C#N)[C@H](Cc1c[nH]c2ccccc12)NC(=O)OC(C)(C)C` (stereo partly drawn) [(Ial), (3S)-3-(tert-butoxycarbonylamino)-2-((2-acetylphenyl)amino)-4-(1H-indol-3-yl)butanenitrile], under setting [1], the minimal effective concentration was found to be 12.5 µM and the EC50 was 9.37 µM.
The corresponding values for `COC(=O)c1ccc(NC(C#N)[C@H](Cc2c[nH]c3ccccc23)NC(=O)OC(C)(C)C)cc1` (stereo partly drawn) [(Iam), methyl 4-(((2S)-2-((tert-butoxycarbonyl)amino)-1-cyano-3-(1H-indol-3-yl)propyl)amino)-benzoate] are 25 µM and 18.8 µM.
The like results for `COC(=O)c1cc(-c2ccc(C(C)(C)C)cc2)ccc1NC(C#N)[C@H](Cc1c[nH]c2ccccc12)NC(=O)OC(C)(C)C` (stereo partly drawn) [(Ij), methyl 4-(((2S)-2-((tert-butoxycarbonyl)amino)-1-cyano-3-(1H-indol-3-yl)propyl)amino)-4′-(tert-butyl)-[1,1′-biphenyl]-3-carboxylate] were, in that order, 1.56 µM and 1.17 µM.
The like results for `COC(=O)c1c(Br)cccc1NC(C#N)[C@H](Cc1c[nH]c2ccccc12)NC(=O)OC(C)(C)C` (stereo partly drawn) [(Ik), methyl 2-bromo-6-(((2S)-2-((tert-butoxycarbonyl)amino)-1-cyano-3-(1H-indol-3-yl)propyl)-amino)benzoate] were, in that order, 1.56 µM and 1.17 µM.
Turning to `CCc1ccc(-c2ccc(NC(C#N)[C@H](Cc3c[nH]c4ccccc34)NC(=O)OC(C)(C)C)c(C(=O)OC)c2)cc1` (stereo partly drawn) [(Il), methyl 4-(((2S)-2-((tert-butoxycarbonyl)amino)-1-cyano-3-(1H-indol-3-yl)propyl)amino)-4′-ethyl-[1,1′-biphenyl]-3-carboxylate], under setting [1], the minimal effective concentration is 1.56 µM and the EC50 is 1.17 µM.
Turning to `COC(=O)c1cc(-c2ccc(C3CC3)cc2)ccc1NC(C#N)[C@H](Cc1c[nH]c2ccccc12)NC(=O)OC(C)(C)C` (stereo partly drawn) [(Im1), methyl 4-(((2S)-2-((tert-butoxycarbonyl)amino)-1-cyano-3-(1H-indol-3-yl)propyl)amino)-4′-cyclopropyl-[1,1′-biphenyl]-3-carboxylate], the “PC MIN (lowest protective concentration)” value came to 1.56 µM and the EC50 is 1.17 µM.
The like results for `COC(=O)c1cc(-c2ccc(C3CC3)cc2)ccc1NC(C#N)[C@H](Cc1c[nH]c2ccccc12)NC(=O)OC(C)(C)C` (stereo partly drawn) [(Im2), methyl 4-(((2S)-2-((tert-butoxycarbonyl)amino)-1-cyano-3-(1H-indol-3-yl)propyl)amino)-4′-cyclopropyl-[1,1′-biphenyl]-3-carboxylate] were, in that order, 1.56 µM and 1.17 µM.
The corresponding values for `COC(=O)c1cc(-c2ccc(C3CC3)cc2)ccc1NC(C#N)[C@H](Cc1c[nH]c2ccccc12)NC(=O)OC(C)(C)C` (stereo partly drawn) [(Im3), methyl 4-(((2S)-2-((tert-butoxycarbonyl)amino)-1-cyano-3-(1H-indol-3-yl)propyl)amino)-4′-(cyclopropyl)-[1,1′-biphenyl]-3-carboxylate] are 3.12 µM and 2.34 µM.
On to `COC(=O)c1cc(-c2ccc(C3CC3)cc2)ccc1NC(C#N)[C@H](Cc1c[nH]c2ccccc12)NC(=O)OC(C)(C)C` (stereo partly drawn) [(Im4), methyl 4-(((2S)-2-((tert-butoxycarbonyl)amino)-1-cyano-3-(1H-indol-3-yl)propyl)amino)-4′-cyclopropyl-[1,1′-biphenyl]-3-carboxylate], for which the “PC MIN (lowest protective concentration)” value was 6.25 µM and the EC50 was 4.69 µM.
With `COC(=O)c1cc(-c2ccc(N3CCN(C)CC3)cc2)ccc1NC(C#N)[C@H](Cc1c[nH]c2ccccc12)NC(=O)OC(C)(C)C` (stereo partly drawn) [(In), methyl 4-(((2S)-2-((tert-butoxycarbonyl)amino)-1-cyano-3-(1H-indol-3-yl)propyl)amino)-4′-(4-methylpiperazin-1-yl)-[1,1′-biphenyl]-3-carboxylate], under setting [1], the minimal effective concentration worked out at 1.56 µM and the EC50 is 1.17 µM.
The corresponding values for `COC(=O)c1cc(-c2ccc(C)nc2)ccc1NC(C#N)[C@H](Cc1c[nH]c2ccccc12)NC(=O)OC(C)(C)C` (stereo partly drawn) [(Ir), methyl 2-(((2S)-2-((tert-butoxycarbonyl)amino)-1-cyano-3-(1H-indol-3-yl)propyl)amino)-5-(6-methylpyridin-3-yl)benzoate] are 1.56 µM and 1.17 µM.
The like results for `COC(=O)c1cc(-c2ccc(OC)nc2)ccc1NC(C#N)[C@H](Cc1c[nH]c2ccccc12)NC(=O)OC(C)(C)C` (stereo partly drawn) [(It), methyl 2-(((2S)-2-((tert-butoxycarbonyl)amino)-1-cyano-3-(1H-indol-3-yl)propyl)amino)-5-(6-methoxypyridin-3-yl)benzoate] were, in that order, 1.56 µM and 1.17 µM.
The like results for `COC(=O)c1ccccc1NC(C#N)[C@H](Cc1c[nH]c2ccccc12)NC(=O)OC(C)(C)C` (stereo partly drawn) [(Iu), methyl 2-(((2S)-2-((tert-butoxycarbonyl)amino)-1-cyano-3-(1H-indol-3-yl)propyl)amino)benzoate] were, in that order, 3.12 µM and 2.34 µM.
